Source: patent publication US20220396818A1, “POLYNUCLEOTIDE SYNTHESIS METHOD, KIT AND SYSTEM” (Oxford Nanopore Technologies PLC, priority 2019, published 2022)

Assays:
[1] = test system: Therminator X DNA polymerase; experiment: Incorporation of 3′-O-azidomethyl-dNTPs to the 3′ end of blunt-ended DNA by Therminator X DNA polymerase (gel); assay type: biochemical, Thermococcus species 9° N; details: presence of Mn2+ ions, 37° C.
Description: • 1. 5 μl of 10× Thermopol® buffer (20 mM Tris-HCl, 10 mM (NH4)2SO4, 10 mM KCl, 2 mM MgSO4, 0.1% Triton® X-100, pH 8.8, New England Biolabs) was mixed with 33.5 μl of sterile deionized water (ELGA VEOLIA) in a 1.5 ml Eppendorf tube. • 2. 2 μl of 20 μM primer (40 pmol, 1 equiv) (SEQ ID: NO: 68, FIG. 56a) and 3 μl of 20 μM template (60 pmol, 1.5 equiv) (SEQ ID: NO: 69, FIG. 56a) were added to the reaction mixture. • 3. 3′-O-modified-dTTP (2 μl of 100 μM) and MnCl2 (2.5 μl of 40 mM) were added. • 4. 2 μl of Therminator X DNA polymerase (20 U, New England BioLabs) was then added. • 5. The reaction was incubated for 30 minutes at 37° C. • 6. The reaction was stopped by addition of TBE-Urea sample buffer (Novex). • 7. The reaction was separated on polyacrylamide gel (15%) TBE buffer and visualized by ChemiDoc MP imaging system (BioRad).

[2] = test system: Therminator IX DNA polymerase; experiment: Incorporation of 3′-O-modified-dNTPs opposite complementary base by Therminator IX DNA polymerase, with helper strand (gel); assay type: biochemical, Thermococcus species 9° N
Description: • 1. 2 μl of 10× Thermopol® buffer (20 mM Tris-HCl, 10 mM (NH4)2SO4, 10 mM KCl, 2 mM MgSO4, 0.1% Triton® X-100, pH 8.8, New England BioLabs) was mixed with 12.25 μl of sterile deionized water (ELGA VEOLIA) in 1.5 ml Eppendorf tube. • 2. 0.5 μl of 10 μM primer (5 pmol, 1 equiv) (SEQ ID NO: 22, FIG. 23j) and 0.75 μl of 10 μM template-A/G/T/C ([…], 1.5 equiv) (SEQ ID NOS: 23 to 26, FIG. 23j) and 1 μl of 10 μM helper strand-T/C/A/G (10 pmol, 2 equiv) (SEQ ID NOS: 27 to 30, FIG. 23j) were added to the reaction mixture. • 3. 3′-O-modified-dTTP/dCTP/dATP/dGTP (2 μl of 100 μM) and MnCl2 (1 μl of 40 mM) were added. • 4. 1.5 μl of Therminator IX DNA polymerase (15 U, New England BioLabs) was then added. • 5. […] The reaction was stopped by addition of TBE-Urea sample buffer (Novex). • 7. The reaction was separated on polyacrylamide gel (15%) TBE buffer and visualized by ChemiDoc MP imaging system (BioRad).
• 1. 5 μl of reaction mixture was added to 5 μl of TBE-Urea sample buffer (Novex) in a sterile 1.5 ml Eppendorf tube and heated to 95° C. for 5 minutes using a heat ThermoMixer (Eppendorf). • 2. 5 μl of the sample were then loaded into the wells of a 15% TBE-Urea gel 1.0 mm×10 well (Invitrogen) which contained preheated 1×TBE buffer Thermo Scientific (89 mM Tris, 89 mM boric acid and 2 mM EDTA). • 3. […]

DNA containing inosine [3] = experiment: Two-step cleavage of inosine-containing oligonucleotide with hAAG and base or Endo VIII (gel); assay type: biochemical
Description: A cleavage reaction on oligonucleotides was carried out using the procedure below: • 1. A pipette (Gilson) was used to transfer 41 μl sterile distilled water (ELGA VEOLIA) into a 1.5 ml Eppendorf tube. • 2. 50 of 10× ThermoPol® reaction buffer NEB (20 mM Tris-HCl, 10 mM (NH4)2SO4, 10 mM KCl, 2 mM MgSO4, 0.1% Triton® X-100, pH 8.8) were then added into the same Eppendorf tube. • 3. 10 each of oligonucleotides (FIG. 18e); template (SEQ ID NO: 3) or any fluorescently tagged long oligo strand, primer with T (SEQ ID NO: 4) and control (SEQ ID NO: 5) all at 5 pmols were added into the same tube. • 4. 10 of Human Alkyladenine DNA Glycosylase (hAAG) NEB (10 units/0) was added into the same tube. • 5. Reaction mixture was then gently mixed by resuspension with a pipette, centrifuged at 13,000 rpm for 5 seconds and incubated at 37° C. for 1 hour. • 6. Typically after incubation time had elapsed, the reaction was terminated by enzymatic heat inactivation (i.e. 65° C. for 20 minutes).
• 1. 2 μl (10-100 ng/0) DNA was added into a sterile 1.5 ml Eppendorf tube. • 2. 40 μl (0.2M) NaOH or 1.5 μl Endo VIII NEB (10 units/0) and 5 μl 10× Reaction Buffer NEB (10 mM Tris-HCl, 75 mM NaCl, 1 mM EDTA, pH 8 @ 25° C.) was also added into the same tube and gently mixed by resuspension and centrifugation at 13000 rpm for 5 sec. • 3. […]

DNA containing inosine [4] = experiment: One-step cleavage of oligonucleotide with Endonuclease V (gel); assay type: biochemical; details: 37° C.
Description: Cleavage reaction on oligonucleotides was carried out using the procedure below: • 1. A pipette (Gilson) was used to transfer 41 μl sterile distilled water (ELGA VEOLIA) into a 1.5 ml Eppendorf tube. • 2. 50 of 10× Reaction Buffer® NEB (50 mM Potassium Acetate, 20 mM Tris-acetate, 10 mM Magnesium Acetate, 1 mM DTT, pH 7.9@25° C.) was then added into the same Eppendorf tube. • 3. 1 μl each of oligonucleotides (FIG. 24d); Template (SEQ ID NO: 31) or any fluorescently tagged long oligo strand, Primer with T (SEQ ID NO: 32) and control (SEQ ID NO: 33) and helper strand (SEQ ID NO: 34), all at 5 pmols, were added into the same tube. • 4. 1 μl of Human Endonuclease V (Endo V) NEB (10 units/μl) was added into the same tube. • 5. Reaction mixture was then gently mixed by resuspension with a pipette, centrifuged at 13,000 rpm for 5 seconds and incubated at 37° C. for 1 hour. • 6. Typically after incubation time had elapsed, reaction was terminated by enzymatic heat inactivation (i.e. 65° C. for 20 minutes).
(§1) • 1. 5 μl of DNA and TBE-Urea sample buffer (Novex) was added into a sterile 1.5 ml Eppendorf tube and heated to 95° C. for 2 minutes using a heat thermoblock (Eppendorf). • 2. The DNA mixtures were then loaded into the wells of a 15% TBE-Urea gel 1.0 mm×10 well (Invitrogen) which contained preheated 1×TBE buffer Thermo Scientific (89 mM Tris, 89 mM boric acid and 2 mM EDTA). • 3. X-cell sure lock module (Novex) was fastened in place and electrophoresis performed at the following conditions; 260V, 90 Amps for 40 minutes at room temperature. • 4. Detection and visualization of DNA in the gel was carried out with Chemidoc MP (BioRad) using Cy3 LEDS. Visualization and analysis was carried out on the Image lab 2.0 platform.

Hairpin Oligonucleotide = experiment: Cleavage of hairpin oligonucleotide with Endonuclease V (gel); assay type: biochemical; details: 37° C.
Description: Cleavage reaction on hairpin oligonucleotides was carried out using the procedure below: • 1. A pipette (Gilson) was used to transfer 43 μl sterile distilled water (ELGA VEOLIA) into a 1.5 ml Eppendorf tube. • 2. 50 of 10× Reaction Buffer® NEB (50 mM potassium acetate, 20 mM Tris-acetate, 10 mM magnesium acetate, 1 mM DTT, pH 7.9@25° C.) was then added into the same Eppendorf tube. • 3. 111 of hairpin oligonucleotide (SEQ ID NO: 45, FIG. 28c) having an amount of 5 pmols was added into the same tube. • 4. 10 of Human Endonuclease V (Endo V) NEB (30 units/μl) was added into the same tube. • 5. […] Typically after incubation time had elapsed, the reaction was terminated by enzymatic heat inactivation (i.e. 65° C. for 20 minutes).
as §1, with “ThermoMixer” for “thermoblock”, “ChemiDoc” for “Chemidoc”

## 3′-O-azidomethyl-dATP
[1]
  Incorporation efficiency: > 99%

## 3′-O-azidomethyl-dTTP
[1]
  Incorporation efficiency: > 99%
[2]; after 20 minutes at 37° C. and 47° C.
  primer remains unextended: 10%
[2]; in the presence of a helper strand, after 5 minutes
  Incorporation: 90%

## hAAG DNA glycosylase: Human Alkyladenine DNA Glycosylase (hAAG) NEB
DNA containing inosine [3]; with a helper strand
  yield of cleaved DNA (cleaved to uncleaved DNA ratio): 50%
DNA containing inosine [3]; without a helper strand
  yield of cleaved DNA (cleaved to uncleaved DNA ratio): 10%

## 3′-O-azidomethyl-dCTP
[1]
  Incorporation efficiency: > 90%

## 3′-O-azidomethyl-dGTP
[1]
  Incorporation efficiency: > 99%

B1: Endo V: Human Endonuclease V (Endo V) NEB (protein, UniProt Q8N8Q3 1-282, looked up)
Endonuclease V: MALEAAGGPPEETLSLWKREQARLKAHVVDRDTEAWQRDPAFSGLQRVGGVDVSFVKGDSVRACASLVVLSFPELEVVYEESRMVSLTAPYVSGFLAFREVPFLLELVQQLREKEPGLMPQVLLVDGNGVLHHRGFGVACHLGVLTDLPCVGVAKKLLQVDGLENNALHKEKIRLLQTRGDSFPLLGDSGTVLGMALRSHDRSTRPLYISVGHRMSLEAAVRLTCCCCRFRIPEPVRQADICSREHIRKSLGLPGPPTPRSPKAQRPVACPKGDSGESSALC
DNA containing inosine [4]; positive control that contained both full length strands
  yield of cleaved DNA (cleaved to uncleaved DNA ratio): 80%
DNA containing inosine [4]; with a helper strand
  DNA cleavage yield: > 99%
DNA containing inosine [4]; without a helper strand
  yield of cleaved DNA: > 99%
Hairpin Oligonucleotide; after 5 minutes
  yield of digested DNA: ~98%
Hairpin Oligonucleotide; after 10 minutes
  yield of digested DNA: ~99%
Hairpin Oligonucleotide; after 30 minutes
  yield of digested DNA: ~99%
Hairpin Oligonucleotide; after 1 hr
  yield of digested DNA: ~99%
